Results as given in US20230090708A1, “METHODS AND COMPOSITIONS FOR THE TREATMENT OF HEMANGIOMA” (MASSEY VENTURES LIMITED, priority 2020, published 2023).
In brackets after ≈: the same amount, converted by molar mass. Like-named read-outs stand apart in the source and are kept apart here.

How the values were obtained:
[1] = test system: proliferating hemangioma cells; test: Experiment 7: different ACEi and beta blockers on one primary cell line, MTT; format: cell-based, human; settings: for Results Summary: 72 hours, one cell line; for inhibition at 1 µM / inhibition at 10 µM: Homo sapiens, 72 h, read-out: Inhibition vs. Cells + Adjuvant at 72 Hours; for inhibition of proliferating hemangioma cells: 1 μM and 10 μM
Experimental: (§1) An in vitro cell culture model of infantile hemangioma was developed to assess the impact of renin-angiotensin system inhibitors on cellular proliferation. A primary cell line of proliferating infantile hemangioma cells, including haemangioma stem cells, was derived from a tissue biopsy obtained from patients during the proliferating phase of the disease. The primary cell lines are cultured in 25 cm^2 flasks using standard culture media and conditions. The cultured cells are used to seed 96-well plates with a seed cell concentration of 2500 or 5000 cells per well, with additional culture media (200 μL). All studies are performed in triplicate.
The plates are incubated overnight to allow cell adherence to the wells. The wells are photographed to confirm cell adherence and confluency. The appropriate drug(s) to be examined are subsequently added to the wells. […] The media is aspirated from each well and stored frozen for possible future analyses. Media is added to the wells and an MTT determination is undertaken according to standard protocols.
(§2) From the triplicate incubations of each drug concentration at each time, as well as for all controls, the mean±standard deviation is calculated. The net survival (optical density value) is calculated by subtracting the appropriate blank mean value from each cell culture. From the MTT data, the percentage of survival of cells in the presence of each concentration of drug after each time of culturing is determined.
Briefly, cells were seeded in 96-well plates at concentrations of 2500 cells/well in triplicate for each drug and drug combination. […] All plates were performed in triplicate. Beta blockers used in the study were (±)-propranolol, R-propranolol, S-propranolol, timolol, and betaxalol.

proliferating IH [2] = settings: cited from earlier work
IH = settings: oral; 30 patients with IH; cited from earlier work
proliferating IH [3] = settings: topical 1% ointments; cited from earlier work
superficial IH = settings: cited from earlier work
[4] = cited from earlier work
[5] = Franz-diffusion cell permeation through skin-model membranes; settings: 120 hours
Text: Firstly, a custom-built Franz-diffusion cell (FIG. 34 A) was constructed in-house, consisting of a donor and receiver chamber, and fitted with a water-jacket to enable the temperature to be controlled to mimic physiological conditions. […] This model system was used as a screening tool to increase the success of subsequent permeation studies performed on excised animal skin.
The system was validated by investigating the permeation of a water-soluble fluorescent dye, carboxyfluorescein, which has poor skin penetration properties. […] As a comparison, carboxyfluorescein was encapsulated into deformable liposomes with a phospholipid membrane composition of soy phosphatidylcholine (Phospholipon® 90G) and polysorbate 80 in an 80:20 mol % ratio. […]
The carboxyfluorescein emulgel (2 mL) was placed in the receiver chamber of the Franz-diffusion cell fitted with a Strat-M® membrane, and permeation of fluorescein across the membrane was monitored over time and quantified by fluoresce spectroscopy. […]
The permeation of propranolol through skin-model membranes in vitro was assessed. A 2-mL volume of the appropriate vehicle (cream vs. emulsion gel) was placed in the donor chamber of the Franz-diffusion cell, and the concentration of propranolol in the receiver chamber was determined by UV-Vis spectroscopy at frequent time intervals over 60 hours.

rabbit lung ACE = molecular target: T1, rabbit lung ACE (Oryctolagus cuniculus, UniProt P12822); settings: vs rabbit lung ACE, cited from earlier work
T1 construct: rabbit lung ACE; from tissue; host or cells: rabbit lung
T1 sequence (P12822 34-1310): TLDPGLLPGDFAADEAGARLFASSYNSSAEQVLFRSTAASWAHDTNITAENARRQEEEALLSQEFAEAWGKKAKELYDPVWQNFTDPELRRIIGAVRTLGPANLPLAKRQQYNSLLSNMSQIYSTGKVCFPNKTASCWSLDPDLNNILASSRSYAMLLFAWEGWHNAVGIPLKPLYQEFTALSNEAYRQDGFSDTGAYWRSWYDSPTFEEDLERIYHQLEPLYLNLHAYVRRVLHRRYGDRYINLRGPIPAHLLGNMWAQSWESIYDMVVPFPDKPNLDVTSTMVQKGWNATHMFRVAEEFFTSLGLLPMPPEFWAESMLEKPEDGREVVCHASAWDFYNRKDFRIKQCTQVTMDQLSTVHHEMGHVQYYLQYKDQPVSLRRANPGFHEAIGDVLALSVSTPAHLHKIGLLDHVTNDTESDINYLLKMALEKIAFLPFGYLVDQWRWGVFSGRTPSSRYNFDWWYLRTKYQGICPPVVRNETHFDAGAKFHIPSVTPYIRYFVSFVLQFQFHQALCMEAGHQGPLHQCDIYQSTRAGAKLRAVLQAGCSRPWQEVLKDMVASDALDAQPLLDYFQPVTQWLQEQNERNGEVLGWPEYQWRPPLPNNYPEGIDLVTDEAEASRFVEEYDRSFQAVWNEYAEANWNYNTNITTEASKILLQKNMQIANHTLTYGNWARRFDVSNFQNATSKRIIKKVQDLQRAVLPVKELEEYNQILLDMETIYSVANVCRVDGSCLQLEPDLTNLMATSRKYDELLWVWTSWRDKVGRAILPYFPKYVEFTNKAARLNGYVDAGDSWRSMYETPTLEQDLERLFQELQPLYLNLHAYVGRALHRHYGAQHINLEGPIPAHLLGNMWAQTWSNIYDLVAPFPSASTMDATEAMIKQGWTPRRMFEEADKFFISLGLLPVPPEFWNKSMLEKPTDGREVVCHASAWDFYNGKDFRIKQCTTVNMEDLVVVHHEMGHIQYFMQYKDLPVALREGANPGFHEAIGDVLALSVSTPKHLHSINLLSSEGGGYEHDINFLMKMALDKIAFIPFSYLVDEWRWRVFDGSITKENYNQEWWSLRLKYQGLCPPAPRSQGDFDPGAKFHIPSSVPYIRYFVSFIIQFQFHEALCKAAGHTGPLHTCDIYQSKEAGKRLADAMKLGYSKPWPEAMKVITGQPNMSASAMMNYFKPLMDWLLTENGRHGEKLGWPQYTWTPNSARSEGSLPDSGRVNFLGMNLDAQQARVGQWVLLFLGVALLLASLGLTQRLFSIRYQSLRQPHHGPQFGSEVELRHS

[6] = cited from earlier work; remark: listed apart in the source
[7] = cited from earlier work; remark: listed apart in the source
[8] = cited from earlier work; for Half life: in vivo; for Half life: short or long acting: in words
[9] = test system: proliferating hemangioma cells; test: Example 5: R- and S-beta blockers alone and with cilazapril, MTT; format: cell-based, human
Experimental: An in vitro cell culture model of infantile hemangioma was developed to assess the impact of renin-angiotensin system inhibitors on cellular proliferation. A primary cell line of proliferating infantile hemangioma cells, including haemangioma stem cells, was derived from a tissue biopsy obtained from patients during the proliferating phase of the disease. The primary cell lines are cultured in 25 cm^2 flasks using standard culture media and conditions. The cultured cells are used to seed 96-well plates with a seed cell concentration of 2500 or 5000 cells per well, with additional culture media (200 μL). All studies are performed in triplicate. The plates are incubated overnight to allow cell adherence to the wells. The wells are photographed to confirm cell adherence and confluency. The appropriate drug(s) to be examined are subsequently added to the wells. After 24 hours, one set of plates (experimental and blank) is stopped. The media is aspirated from each well and stored frozen for possible future analyses. Media is added to the wells and an MTT determination is undertaken according to standard protocols. This is repeated at 48 and 72 hours. From the triplicate incubations of each drug concentration at each time, as well as for all controls, the mean±standard deviation is calculated. The net survival (optical density value) is calculated by subtracting the appropriate blank mean value from each cell culture. From the MTT data, the percentage of survival of cells in the presence of each concentration of drug after each time of culturing is determined. The experimental protocol was performed as per Example 1. Briefly, cells were seeded in 96-well plates at concentrations of 2500 cells/well in triplicate for each drug and drug combination. Drug(s) were added to each well 24 hours after seeding and re-dosed every 24 hours. Cell viability was assessed by MTT assay after 24, 48, and 72 hours. All plates were performed in triplicate. […] Timolol and propranolol were used as model beta blockers and cilazapril as a model ACE inhibitor.

[10] = test system: proliferating hemangioma cell lines (n=9); test: Example 6: single agents and combinations on nine primary cell lines, MTT, CompuSyn combination index; format: cell-based, human; settings: 1 to 10 μM; 72 hours; n=9
Experimental: as §1
The plates are incubated overnight to allow cell adherence to the wells. The wells are photographed to confirm cell adherence and confluency. The appropriate drug(s) to be examined are subsequently added to the wells. After 24 hours, one set of plates (experimental and blank) is stopped. The media is aspirated from each well and stored frozen for possible future analyses. Media is added to the wells and an MTT determination is undertaken according to standard protocols. This is repeated at 48 and 72 hours.
as §2
A study was undertaken using combinations of ACE inhibitors, beta blockers and angiotensin II type 2 receptor blockers to inhibit proliferating hemangioma cells. […] Patient histories pertaining to each cell line is described in Table 5.
The experimental protocol was performed as per Example 1. Briefly, cells were seeded in 96-well plates at concentrations of 2500 cells/well in triplicate for each drug and drug combination. Drug(s) were added to each well 24 hours after seeding and re-dosed every 24 hours. Cell viability was assessed by MTT assay after 24, 48, and 72 hours. All plates were performed in triplicate. Drugs were assessed alone and in combination, as described in Table 6. Propranolol was used as a model beta blocker, cilazapril as a model ACE inhibitor, and SMM02 (L-159686) as a model AT2Ri. Synergy was measured using the CompuSyn open-source software protocol for quantifying synergism and antagonism that uses the median-effect equation and mass-action laws to generate a combination index (www.compusyn.com). Synergism, additive effects and antagonism are defined as a CI<1, CI=1, and CI>1, respectively.

[11] = test system: flat or minimally raised IH lesions; settings: cited from earlier work
brush border ACE = molecular target: T2, brush border ACE (Homo sapiens, UniProt P12821); settings: cited from earlier work
T2 construct: brush border ACE; from tissue
T2 sequence (P12821 30-1306): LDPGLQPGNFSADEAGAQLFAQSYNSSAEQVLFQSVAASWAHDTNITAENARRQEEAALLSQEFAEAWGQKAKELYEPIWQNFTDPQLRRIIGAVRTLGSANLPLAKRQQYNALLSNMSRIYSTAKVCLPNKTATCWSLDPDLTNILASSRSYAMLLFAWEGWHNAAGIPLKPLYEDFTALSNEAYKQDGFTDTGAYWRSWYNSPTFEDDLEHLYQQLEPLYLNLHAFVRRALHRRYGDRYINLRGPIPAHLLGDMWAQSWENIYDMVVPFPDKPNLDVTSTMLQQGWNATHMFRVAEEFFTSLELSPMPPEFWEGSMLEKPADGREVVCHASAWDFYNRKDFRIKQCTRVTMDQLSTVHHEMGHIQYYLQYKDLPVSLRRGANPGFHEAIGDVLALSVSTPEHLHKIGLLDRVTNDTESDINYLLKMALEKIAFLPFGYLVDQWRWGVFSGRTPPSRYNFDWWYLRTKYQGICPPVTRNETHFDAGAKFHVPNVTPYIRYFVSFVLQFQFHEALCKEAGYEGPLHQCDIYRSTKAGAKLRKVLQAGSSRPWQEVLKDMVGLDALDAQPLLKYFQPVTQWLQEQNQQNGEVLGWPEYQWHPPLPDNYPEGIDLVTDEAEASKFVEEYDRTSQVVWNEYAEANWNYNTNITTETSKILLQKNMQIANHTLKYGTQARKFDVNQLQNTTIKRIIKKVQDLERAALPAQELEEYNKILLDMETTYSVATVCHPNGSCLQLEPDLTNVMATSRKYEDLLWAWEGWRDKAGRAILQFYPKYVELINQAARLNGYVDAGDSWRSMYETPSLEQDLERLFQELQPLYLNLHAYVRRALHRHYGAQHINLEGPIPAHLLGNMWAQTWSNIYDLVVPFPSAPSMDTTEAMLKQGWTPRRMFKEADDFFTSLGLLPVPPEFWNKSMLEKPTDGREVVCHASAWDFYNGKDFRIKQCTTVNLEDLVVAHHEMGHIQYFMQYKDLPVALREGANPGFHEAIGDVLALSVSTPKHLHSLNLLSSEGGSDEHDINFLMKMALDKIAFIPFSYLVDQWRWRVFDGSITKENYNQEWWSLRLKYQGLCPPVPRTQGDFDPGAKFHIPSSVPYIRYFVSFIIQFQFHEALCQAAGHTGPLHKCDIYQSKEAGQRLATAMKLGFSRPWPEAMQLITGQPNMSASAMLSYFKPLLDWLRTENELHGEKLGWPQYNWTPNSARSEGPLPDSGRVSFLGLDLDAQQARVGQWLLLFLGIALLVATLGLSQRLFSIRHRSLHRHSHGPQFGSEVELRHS

CC(C)NCC(O)COc1cccc2ccccc12 (racemic) [(±) Propranolol, Propranolol]
Results Summary [1]: Responder | inhibition at 1 µM ([1]; 1 μM): < 0% | inhibition at 10 µM ([1]; 10 μM): 47.5% | patients treated showing an improvement (proliferating IH [2]; oral low dose, within 5 weeks): approximately 88% | patients successfully treated (proliferating IH [2]; oral, overall): approximately 60% | clinical improvement versus captopril (IH): significantly better and faster | good response (proliferating IH [3]): 57-59% | good to modest response rates (proliferating IH [3]): 75-90% | modest response (proliferating IH [3]): 26-33% | no response (proliferating IH [3]): 10-15%

CC(C)Cn1cnc2c(N)nc3ccccc3c21 [imiquimod, Imiquimod]
time within which all cases are improved (superficial IH; 5% cream): ≤ 4 months | side effects (superficial IH; topical): severe local inflammatory reactions leading to disfiguring scars

carboxyfluorescein
log P [4]: 2.9 | permeation of carboxyfluorescein through the skin-model membrane [5]: No permeation

Lisinopril
Estimated Optimal Dosage Range [1]: 1 to 10 µM | Inhibition vs. Cells + Adjuvant at 72 Hours ([1]; 1 μM): 1 μM - <0% | inhibition of proliferating hemangioma cells [1]: no effect | Inhibition vs. Cells + Adjuvant at 72 Hours ([1]; 10 μM): 10 μM -1.67% | Results Summary [1]: Non- | IC50 (rabbit lung ACE; unit inferred): 3.3 nM | Log P ([4]; Table 1): −1.01 | log P [4]: −1.01 | pKa [6]: 3.2 | pKa ([6]; second value): 10.2 | Solubility [7]: 97 mg/mL | Half life [8]: 12.6 h | Half life: short or long acting [8]: Long acting

O=C(O)[C@H](CCc1ccccc1)N[C@H]1CCCN2CCC[C@@H](C(=O)O)N2C1=O [cilazaprilat]
IC50 (rabbit lung ACE): 1.93 nM | Half life [8]: 9 h (cilazaprilat)

CC(C)NCC(O)COc1cccc2ccccc12 (stereo not drawn) [S(−) Propranolol, S-propranolol]
individual isomers compared with the racemic mixture ([9]; alone): as effective alone as the racemic mixture | attenuating hemangioma cell proliferation, propranolol vs timolol enantiomers ([9]; particularly at 1-5 μM): superior to R- and S-timolol | dose-response across all cell lines [10]: typical dose-response | Estimated Optimal Dosage Range [1]: 1 to 10 µM | Inhibition vs. Cells + Adjuvant at 72 Hours ([1]; 1 μM): 1 μM - No - 2.07% | Inhibition vs. Cells + Adjuvant at 72 Hours ([1]; 10 μM): 10 μM - Response - 45.68% | Results Summary [1]: Responder

CCC(=O)O[C@]1(C(=O)CCl)[C@@H](C)C[C@H]2[C@@H]3CCC4=CC(=O)C=C[C@]4(C)[C@@]3(F)[C@@H](O)C[C@@]21C [clobetasol propionate]
good response ([11]; topical 0.05%, 4 to 21 weeks): 35% | no response ([11]; topical 0.05%, 4 to 21 weeks): 27% | partial response ([11]; topical 0.05%, 4 to 21 weeks): 38% | adverse effects ([11]; topical ultrapotent corticosteroid): localised atrophy, hypopigmentation, hypertrichosis and infection

CCOC(=O)[C@H](CCc1ccccc1)N[C@@H](C)C(=O)N1[C@H](C(=O)O)C[C@@H]2CCC[C@@H]21 [Ramipril]
inhibition of proliferating hemangioma cells [1]: good and similar level of inhibition | Results Summary [1]: Responder | inhibition at 1 µM ([1]; 1 μM): < 0% | inhibition at 10 µM ([1]; 10 μM): 68.1% | Complete ACE inhibition lasting (brush border ACE; after single 10 μM dose): inhibition lasting 15 days | IC50 (brush border ACE; vs brush border ACE): 5 nM | pKa [6]: 3.75 | pKa ([6]; second value): 5.2 | Solubility [7]: 0.0035 mg/mL (≈ 8.4 µM) | Half life [8]: 2 to 4 h (Ramipril) | Half life: short or long acting [8]: Long acting

CCOC(=O)[C@H](CCc1ccccc1)N[C@H]1CCc2ccccc2N(CC(=O)O)C1=O [Benazepril]
IC50 (rabbit lung ACE): 425 nM | pKa [6]: 3.5 | pKa ([6]; second value): 5.4 | Solubility ([7]; pH 7): 1.76 mg/L (pH 7) | Half life: short or long acting [8]: Long acting
